# Experiments:
# Type in all cases: in vivo
# [1] = tested on: Myzus persicae (Green peach aphid); assay: Myzus persicae (Green peach aphid) systemic activity, pea seedling roots in test solution; details: 144 h, test rate of 24 ppm, assessed 6 days after placing seedlings into test solutions
# Method: Myzus persicae (Green peach aphid) Systemic activity
# Roots of pea seedlings infested with an aphid population of mixed ages were placed directly into aqueous test solutions prepared from 10,000 DMSO stock solutions. The samples were assessed for mortality 6 days after placing seedlings into test solutions.
# [2] = tested on: Aphis craccivora (Black bean aphid); assay: Aphis craccivora (Black bean aphid), mixed population, systemic/feeding, pea seedlings in test solutions; details: 120 h, application rate of 24 ppm, assessed 5 days later, read-out: growth inhibition
# Method: Aphis craccivora (Black bean aphid), mixed population, systemic/feeding Pea seedlings infested with mixed aged aphid population, were put into glass vials with test solutions. 5 days later, samples were assessed for mortality.
# [3] = tested on: Myzus persicae (Green peach aphid); assay: Myzus persicae (Green peach aphid) intrinsic activity, sucrose solution feeding through Parafilm; details: test rate of 12 ppm, assessed 5 days after infestation; for mortality at 12 ppm: Myzus persicae, 120 h
# Excerpt: Myzus persicae (Green peach aphid) Intrinsic activity
# Test compounds prepared from 10,000 ppm DMSO stock solutions were applied by pipette into 24-well microtiter plates and mixed with sucrose solution. The plates were closed with a stretched Parafilm. A plastic stencil with 24 holes was placed onto the plate and infested pea seedlings were placed directly on the Parafilm. The infested plate was closed with a gel blotting paper and another plastic stencil and then turned upside down. The samples were assessed for mortality 5 days after infestation.
# [4] = tested on: Myzus persicae (Green peach aphid); assay: Myzus persicae (Green peach aphid) feeding/contact activity, sprayed eggplant leaf discs; details: application rate of 200 ppm, assessed 6 days after infestation
# Method: Myzus persicae (Green peach aphid) Feeding/Contact activity Eggplant leaf discs were placed onto agar in a 24-well microtiter plate and sprayed with aqueous test solutions prepared from 10,000 ppm DMSO stock solutions. After drying, the leaf discs were infested with an aphid population of mixed ages. The samples were assessed for mortality 6 days after infestation.
molecule,measurement,setting,value
"O=C(NCCCCCCC1CC1(F)Br)c1ccccc1 (stereo not shown) [Compound A4, N-[6-(2-bromo-2-fluoro-cyclopropyl)hexyl]benzamide]",mortality at 24 ppm,[1],≥ 80%
"OCCCCCCC1CC1(F)Br (stereo not shown) [Compound A7, 6-(2-bromo-2-fluoro-cyclopropyl)hexan-1-ol]",inhibition at 24 ppm,[2],≥ 80%
"O=C(OCCCCCCC1CC1(F)Br)c1ccccc1 (stereo not shown) [Compound A8, 6-(2-bromo-2-fluoro-cyclopropyl)hexyl benzoate]",inhibition at 24 ppm,[2],≥ 80%
"OCCCCC1CC1(F)Br (stereo not shown) [Compound A9, 4-(2-bromo-2-fluoro-cyclopropyl)butan-1-ol]",mortality at 12 ppm,[3],≥ 80%
same,inhibition at 24 ppm,[2],≥ 80%
"O=C(NCCCCC1CC1(F)Br)C1CC1 (stereo not shown) [Compound A24, N-[4-(2-bromo-2-fluoro-cyclopropyl)butyl]cyclopropanecarboxamide]",inhibition at 200 ppm,"[4]; Myzus persicae, foliar, 144 h, read-out: growth inhibition",≥ 80%
"O=C(NCCCCC1CC1(F)Br)N1CCCCC1 (stereo not shown) [Compound A43, N-[4-(2-bromo-2-fluoro-cyclopropyl)butyl]piperidine-1-carboxamide]",mortality at 12 ppm,[3],≥ 80%
"N-[4-(2-bromo-2-fluoro-cyclopropyl)butyl]-2,3-dihydro-1,4-benzodioxine-5-sulfonamide [Compound A27]",growth inhibition,[4],at least 80%
"N-[4-(2-bromo-2-fluoro-cyclopropyl)butyl]-3,5-dimethyl-isoxazole-4-sulfonamide [Compound A11]",mortality,[3],at least 80%
N-[4-(2-bromo-2-fluoro-cyclopropyl)butyl]-6-methyl-pyridine-3-sulfonamide [Compound A10],growth inhibition,[4],at least 80%

# From patent publication EP4667451A1, “PESTICIDALLY-ACTIVE 2,2-DIHALOCYCLOPROPYL COMPOUNDS” (Syngenta Crop Protection AG, priority 2024, dated 2025)
